# In US12679805B2, “Bioactive substance exhibiting antimalarial activity, and use for same” (RIKEN, priority 2021, dated 2026):
# Where “and” joins values, the source holds several entries; their conditions need not be identical. Equal entries are not always repeated.
# How the values were obtained:
# [1] = tested on: Hela cells; experiment: Cytotoxicity (growth inhibitory activity), HeLa cells; assay type: cell-based; conditions: for IC50: Homo sapiens
# Source text: (§1) Subsequently, the cytotoxicity of DHLC was examined. More specifically, the activity of DHLC to various types of cancer cells (Hela cells, HL-60 cells, MKN74 cells, NB-1 cells, T98G cells) were examined.
# [2] = tested on: HL-60 cells; experiment: Cytotoxicity (growth inhibitory activity), HL-60 cells; assay type: cell-based; conditions: for IC50: Homo sapiens
# Source text: as §1
# [3] = tested on: Plasmodium falciparum; conditions: reported in Non Patent Literature 1; cited from earlier work
# [4] = tested on: wild-type Plasmodium falciparum (pf3D7 strain); experiment: Antimalarial activity, pLDH Malstat analysis, wild-type Plasmodium falciparum (pf3D7 strain); assay type: cell-based
# Description: Specifically, first, a wild-type malarial parasite, Plasmodium falciparum (pf3D7 strain) was cultured in a human type-A Rh+ erythrocyte-containing solution prepared such that the hematocrit level was 3% in a hypoxic condition (O2 concentration: 5%, CO2 concentration: 5%). A culture medium used herein was a complete medium (Gibco, RPMI 1640 medium) containing 25 mM N-(2-hydroxyethyl)piperazine-N′-2-ethanesulfonic acid (HEPES), 10 […] glucose, 5 μg/mL gentamicin and 10% bovine serum albumin. Thereafter, DHLC solutions having 16 different concentrations within the range of 0.015 nM to 500 nM as shown in Table 2 were prepared using dimethyl sulfoxide (DMSO). Subsequently, to each of the wells of a 96 well microplate, 100 μl of a culture solution containing Plasmodium falciparum (pf3D7 strain) cultured in accordance with a method as mentioned above, was added, and then, 0.5 μl of a DHLC solution different in concentration was added to each well. Three sample sets were prepared in the same manner by adding 16 DHLC solutions different in concentration to wells, and then, allowed to stand still at 37° C. for 72 hours to expose Plasmodium falciparum (pf3D7 strain) to DHLC. Note that, each well contains the complete medium (RPMI medium), and the malarial parasite concentration was 0.3% and hematocrit level was 2%. Thereafter, the 96 well microplates containing samples were frozen at −80° C. overnight, and then, thawed at room temperature to hemolyze red blood cells. Lactate dehydrogenase (pLDH), which is an intracellular metabolic enzyme of malarial parasite, in the samples contained in individual wells, was stained with a Malstat reagent (Flow Inc.) in accordance with the protocol of Malstat analysis (Am. J. Trop. Med. Hyg. 48(6), 1993, pp. 739-741) known in the art and the absorbance thereof was measured at 620 nm. Based on the results, the infection rates (%) of cells with malarial parasite, at different concentrations of DHLC were calculated. Note that, a positive control used herein was a sample prepared by adding a solution prepared by diluting an existing antimalarial drug, i.e., chloroquine diphosphate, with distilled water, to wild-type Plasmodium falciparum (pf3D7 strain). A negative control used herein was a sample prepared by adding a solution prepared by diluting DMSO with distilled water, to a wild-type Plasmodium falciparum (pf3D7 strain). For measuring a background value, an erythrocyte-containing solution not infected with Plasmodium falciparum, was used.
# [5] = tested on: drug-resistant Plasmodium falciparum (K1); experiment: Antimalarial activity against chloroquine-resistant Plasmodium falciparum (K1); assay type: cell-based; conditions: FIG. 1
# [6] = tested on: MKN74 cells; experiment: Cytotoxicity (growth inhibitory activity), MKN74 cells; assay type: cell-based
# Source text: as §1
# [7] = tested on: NB-1 cells; experiment: Cytotoxicity (growth inhibitory activity), NB-1 cells; assay type: cell-based; conditions: Homo sapiens, NB1
# Source text: as §1
# [8] = tested on: T98G cells; experiment: Cytotoxicity (growth inhibitory activity), T98G cells; assay type: cell-based
# Source text: as §1
compound,measurement,setting,value
C\C=C(/C=C(C)/C=C/C=C/C=C(\C)C(=O)[C@H]1C(=O)N[C@]2(O)CCO[C@H]12)C(=O)OC [Lucilactaene],IC50,[1],10 µg/mL
same,IC50,[2],7 µg/mL
same,antimalarial activity IC50,[3],0.063 µg/mL
same,antimalarial effect relative to NG-391,[3],about 12 times
C\C=C(/C=C(C)/C=C/C=C/C=C(\C)C(=O)[C@H]1C(=O)N[C@]2(O)CCO[C@H]12)C(=O)O [Demethyl lucilactaene],growth inhibitory activity (IC50 value),[1],>30 µg/mL
same,growth inhibitory activity (IC50 value),[2],>30 µg/mL
C\C=C(/C=C(C)/C=C/C=C/C=C(\C)C(=O)[C@]12O[C@H]1C(O)(CCO)NC2=O)C(=O)OC (stereo partly drawn) [NG-391],IC50,[1],5.9 µg/mL
same,IC50,[2],6.6 µg/mL
same,antimalarial activity IC50,[3],0.75 µg/mL
C\C=C(/C=C(C)/C=C/C=C/C=C(\C)C(=O)C1CC(O)(CCO)NC1=O)C(=O)OC (stereo not drawn) [DHLC],pf3D7(%) infection rate of cells with malarial parasite,"[4]; 0.015 nM, 72 hours",98.9%
same,pf3D7(%) infection rate of cells with malarial parasite,"[4]; 0.03 nM, 72 hours",109.8%
same,pf3D7(%) infection rate of cells with malarial parasite,"[4]; 0.06 nM, 72 hours",89.4%
same,pf3D7(%) infection rate of cells with malarial parasite,"[4]; 0.12 nM, 72 hours",92.9%
same,pf3D7(%) infection rate of cells with malarial parasite,"[4]; 0.24 nM, 72 hours",77.2%
same,pf3D7(%) infection rate of cells with malarial parasite,"[4]; 0.49 nM, 72 hours",74.1%
same,pf3D7(%) infection rate of cells with malarial parasite,"[4]; 0.98 nM, 72 hours",41.7%
same,pf3D7(%) infection rate of cells with malarial parasite,"[4]; 1.95 nM, 72 hours",28.2%
same,pf3D7(%) infection rate of cells with malarial parasite,"[4]; 3.90 nM, 72 hours",22.9%
same,pf3D7(%) infection rate of cells with malarial parasite,"[4]; 7.81 nM, 72 hours",23.7%
same,pf3D7(%) infection rate of cells with malarial parasite,"[4]; 15.63 nM, 72 hours",13.3%
same,pf3D7(%) infection rate of cells with malarial parasite,"[4]; 31.25 nM, 72 hours",9.6%
same,pf3D7(%) infection rate of cells with malarial parasite,"[4]; 62.5 nM, 72 hours",14.3%
same,pf3D7(%) infection rate of cells with malarial parasite,"[4]; 125 nM, 72 hours",10.2%
same,pf3D7(%) infection rate of cells with malarial parasite,"[4]; 250 nM, 72 hours",8.5%
same,pf3D7(%) infection rate of cells with malarial parasite,"[4]; 500 nM, 72 hours",13.9%
same,IC50,"[4]; Plasmodium falciparum, pf3D7 strain, 72 hours, read-out: growth inhibitory activity (IC50 value)",0.65 nM and 0.00026 µg/mL
same,antimalarial activity relative to NG-391,[4]; versus NG-391 IC50=0.75 μg/ml,≥ 1000 times
same,antimalarial activity relative to lucilactaene,[4]; versus lucilactaene IC50=0.063 μg/ml,≥ 100 times
same,antimalarial activity against drug-resistant Plasmodium falciparum (K1),[5],as high as against wild-type Plasmodium falciparum
same,IC50,[1],21 µg/mL
same,IC50,[2],3.4 µg/mL
same,growth inhibitory activity (IC50 value),[6],>30 µg/mL
same,IC50,"[6]; Homo sapiens, MKN-74",> 30 µg/mL
same,IC50,[7],0.34 µg/mL
same,growth inhibitory activity (IC50 value),[8],>30 µg/mL
same,IC50,[8]; Homo sapiens,> 30 µg/mL
